Assay results reported in paper PMC5290327, “SC83288 is a clinical development candidate for the treatment of severe malaria” (Nature Communications, 2017).

How the values were obtained:
Assay in all cases: KINOMEscan
Type in all cases: binding
Conditions in all cases: read-out: Remaining enzyme activity
[1] = target: T1, ABL1(F317I) (Homo sapiens, UniProt P00519, F317I)
T1 construct: purchased Ambit (DiscoverX) KINOMEscan; Cerep
Summary of the method: (§1)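 SC81458 was screened at a single 10 μM final concentration for its ability to compete with an immobilized, active-site directed ligand for each kinase. Kinase in the eluates was measured by quantitative PCR. Beads were blocked with biotin and SeaBlock buffer holding 1% BSA, 0.05% Tween 20 and 1 mM DTT.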

[2] = target: T2, ACVR2b (Homo sapiens, UniProt Q13705)
T2 construct: purchased Ambit (DiscoverX) KINOMEscan; Cerep
T2 sequence (Q13705 19-512): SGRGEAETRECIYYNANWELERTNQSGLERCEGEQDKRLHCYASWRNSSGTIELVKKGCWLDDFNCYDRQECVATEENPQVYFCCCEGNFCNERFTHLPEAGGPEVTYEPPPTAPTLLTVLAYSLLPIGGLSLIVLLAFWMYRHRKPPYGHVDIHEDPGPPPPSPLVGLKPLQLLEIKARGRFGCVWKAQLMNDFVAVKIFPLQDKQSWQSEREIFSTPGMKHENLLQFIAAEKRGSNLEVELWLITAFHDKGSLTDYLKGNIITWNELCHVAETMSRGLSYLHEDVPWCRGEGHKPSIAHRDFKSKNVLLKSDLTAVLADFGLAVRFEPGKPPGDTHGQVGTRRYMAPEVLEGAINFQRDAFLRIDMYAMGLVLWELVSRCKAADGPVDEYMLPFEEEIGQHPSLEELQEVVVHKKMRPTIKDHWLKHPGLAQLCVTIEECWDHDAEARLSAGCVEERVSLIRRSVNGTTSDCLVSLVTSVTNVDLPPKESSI
Summary of the method: as §1

[3] = target: T3, BTK (Homo sapiens, UniProt Q06187)
T3 construct: purchased Ambit (DiscoverX) KINOMEscan; Cerep
Summary of the method: as §1

[4] = target: T4, CDC2L1 (Homo sapiens, UniProt P21127)
T4 construct: purchased Ambit (DiscoverX) KINOMEscan; Cerep
T4 sequence (P21127 whole entry): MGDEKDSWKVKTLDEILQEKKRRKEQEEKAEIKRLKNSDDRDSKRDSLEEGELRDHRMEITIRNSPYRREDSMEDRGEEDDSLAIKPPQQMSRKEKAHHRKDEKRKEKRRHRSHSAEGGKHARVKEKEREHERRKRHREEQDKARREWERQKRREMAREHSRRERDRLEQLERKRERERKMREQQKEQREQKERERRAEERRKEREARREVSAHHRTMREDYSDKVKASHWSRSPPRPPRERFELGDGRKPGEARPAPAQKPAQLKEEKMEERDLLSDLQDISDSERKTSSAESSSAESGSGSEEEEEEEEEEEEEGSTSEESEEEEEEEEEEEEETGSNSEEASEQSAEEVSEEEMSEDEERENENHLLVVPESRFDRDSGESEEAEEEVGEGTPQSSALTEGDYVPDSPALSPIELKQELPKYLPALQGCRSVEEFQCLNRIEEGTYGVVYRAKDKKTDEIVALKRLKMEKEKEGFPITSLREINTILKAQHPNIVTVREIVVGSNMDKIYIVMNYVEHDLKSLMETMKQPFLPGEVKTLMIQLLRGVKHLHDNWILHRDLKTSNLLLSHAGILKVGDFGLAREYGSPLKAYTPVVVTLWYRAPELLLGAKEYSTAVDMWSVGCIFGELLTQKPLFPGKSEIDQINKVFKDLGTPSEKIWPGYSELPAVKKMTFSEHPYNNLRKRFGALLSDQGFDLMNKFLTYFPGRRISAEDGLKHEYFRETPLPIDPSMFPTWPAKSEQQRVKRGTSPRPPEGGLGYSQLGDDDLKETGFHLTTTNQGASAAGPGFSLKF
Summary of the method: as §1

[5] = target: T5, CDK5 (Homo sapiens, UniProt Q00535)
T5 construct: purchased Ambit (DiscoverX) KINOMEscan; Cerep
Summary of the method: as §1

[6] = target: T6, CHEK2 (Homo sapiens, UniProt O96017)
T6 construct: purchased Ambit (DiscoverX) KINOMEscan; Cerep
Summary of the method: as §1

[7] = target: T7, CTK (Homo sapiens, UniProt P42679)
T7 construct: purchased Ambit (DiscoverX) KINOMEscan; Cerep
Summary of the method: as §1

[8] = target: T8, EGFR(L858R) (Homo sapiens, UniProt P00533, L858R)
T8 construct: purchased Ambit (DiscoverX) KINOMEscan; Cerep
T8 sequence (P00533 25-1210 L858R): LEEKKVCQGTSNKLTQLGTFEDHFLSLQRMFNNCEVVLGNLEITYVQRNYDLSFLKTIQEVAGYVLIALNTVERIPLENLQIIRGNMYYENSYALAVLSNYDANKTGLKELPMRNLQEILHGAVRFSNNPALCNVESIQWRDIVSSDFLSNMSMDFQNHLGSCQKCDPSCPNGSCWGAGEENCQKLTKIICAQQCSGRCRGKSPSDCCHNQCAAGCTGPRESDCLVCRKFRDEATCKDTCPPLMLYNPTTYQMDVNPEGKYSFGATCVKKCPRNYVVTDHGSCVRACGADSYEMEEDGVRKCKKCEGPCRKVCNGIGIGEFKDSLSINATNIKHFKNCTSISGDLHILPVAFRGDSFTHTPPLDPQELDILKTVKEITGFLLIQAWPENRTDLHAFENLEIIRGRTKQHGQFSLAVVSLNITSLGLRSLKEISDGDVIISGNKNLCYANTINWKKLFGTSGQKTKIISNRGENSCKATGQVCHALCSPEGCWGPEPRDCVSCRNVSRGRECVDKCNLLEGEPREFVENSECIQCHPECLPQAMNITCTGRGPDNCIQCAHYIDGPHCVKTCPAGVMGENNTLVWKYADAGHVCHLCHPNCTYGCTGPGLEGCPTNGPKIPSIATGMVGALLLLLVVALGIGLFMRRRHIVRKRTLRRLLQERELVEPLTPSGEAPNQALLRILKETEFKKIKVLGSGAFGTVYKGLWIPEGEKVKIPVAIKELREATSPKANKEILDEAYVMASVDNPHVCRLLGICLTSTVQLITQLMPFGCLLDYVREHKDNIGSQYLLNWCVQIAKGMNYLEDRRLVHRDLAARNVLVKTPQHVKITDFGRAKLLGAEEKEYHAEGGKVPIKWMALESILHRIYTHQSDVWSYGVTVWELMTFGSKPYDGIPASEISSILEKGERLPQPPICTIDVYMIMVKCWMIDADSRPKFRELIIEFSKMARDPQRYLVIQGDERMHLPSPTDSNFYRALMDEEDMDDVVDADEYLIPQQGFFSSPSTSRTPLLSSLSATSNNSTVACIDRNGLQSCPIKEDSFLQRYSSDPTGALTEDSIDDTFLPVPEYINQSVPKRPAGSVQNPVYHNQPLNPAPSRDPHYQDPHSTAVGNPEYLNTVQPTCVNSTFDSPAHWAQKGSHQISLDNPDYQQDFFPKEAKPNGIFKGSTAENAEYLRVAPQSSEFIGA
Summary of the method: as §1

[9] = target: T9, EGFR(L861Q) (Homo sapiens, UniProt P00533, L861Q)
T9 construct: purchased Ambit (DiscoverX) KINOMEscan; Cerep
Summary of the method: as §1

[10] = target: T10, EPHA6 (Homo sapiens, UniProt Q9UF33)
T10 construct: purchased Ambit (DiscoverX) KINOMEscan; Cerep
Summary of the method: as §1

[11] = target: T11, FGFR3(G697C) (Homo sapiens, UniProt P22607, G697C)
T11 construct: purchased Ambit (DiscoverX) KINOMEscan; Cerep
Summary of the method: as §1

[12] = target: T12, FGFR4 (Homo sapiens, UniProt P22455)
T12 construct: purchased Ambit (DiscoverX) KINOMEscan; Cerep
Summary of the method: as §1

[13] = target: T13, GSK3a (Homo sapiens, UniProt P49840)
T13 construct: purchased Ambit (DiscoverX) KINOMEscan; Cerep
Summary of the method: as §1

[14] = target: T14, HIPK1 (Homo sapiens, UniProt Q86Z02)
T14 construct: purchased Ambit (DiscoverX) KINOMEscan; Cerep
Summary of the method: as §1

[15] = target: T15, HUNK (Homo sapiens, UniProt P57058)
T15 construct: purchased Ambit (DiscoverX) KINOMEscan; Cerep
T15 sequence (P57058 whole entry): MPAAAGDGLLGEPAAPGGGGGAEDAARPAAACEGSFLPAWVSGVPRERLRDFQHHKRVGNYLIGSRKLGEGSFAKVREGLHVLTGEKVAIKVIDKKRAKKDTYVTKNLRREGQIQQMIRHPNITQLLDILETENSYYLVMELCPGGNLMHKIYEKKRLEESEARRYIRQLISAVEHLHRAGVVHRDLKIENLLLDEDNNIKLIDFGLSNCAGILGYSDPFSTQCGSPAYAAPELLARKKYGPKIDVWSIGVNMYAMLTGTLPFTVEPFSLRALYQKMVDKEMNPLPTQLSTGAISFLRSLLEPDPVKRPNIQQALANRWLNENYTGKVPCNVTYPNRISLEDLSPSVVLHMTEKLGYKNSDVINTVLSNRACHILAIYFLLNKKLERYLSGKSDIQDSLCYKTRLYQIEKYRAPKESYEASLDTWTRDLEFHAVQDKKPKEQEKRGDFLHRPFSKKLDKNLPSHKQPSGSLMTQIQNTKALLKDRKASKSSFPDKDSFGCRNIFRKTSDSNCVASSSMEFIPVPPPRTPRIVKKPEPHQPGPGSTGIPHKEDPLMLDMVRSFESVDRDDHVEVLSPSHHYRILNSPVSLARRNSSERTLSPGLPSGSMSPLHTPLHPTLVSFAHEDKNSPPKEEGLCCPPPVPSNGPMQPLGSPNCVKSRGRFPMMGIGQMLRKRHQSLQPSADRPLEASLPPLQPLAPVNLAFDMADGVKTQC
Summary of the method: as §1

[16] = target: T16, IGF1R (Homo sapiens, UniProt P08069)
T16 construct: purchased Ambit (DiscoverX) KINOMEscan; Cerep
Summary of the method: as §1

[17] = target: T17, IKK-beta (Homo sapiens, UniProt O14920)
T17 construct: purchased Ambit (DiscoverX) KINOMEscan; Cerep
Summary of the method: as §1

[18] = target: T18, MAP3K1 (Homo sapiens, UniProt Q13233)
T18 construct: purchased Ambit (DiscoverX) KINOMEscan; Cerep
Summary of the method: as §1

[19] = target: T19, MERTK (Homo sapiens, UniProt Q12866)
T19 construct: purchased Ambit (DiscoverX) KINOMEscan; Cerep
Summary of the method: as §1

[20] = target: T20, MET (Homo sapiens, UniProt P08581)
T20 construct: purchased Ambit (DiscoverX) KINOMEscan; Cerep
Summary of the method: as §1

[21] = target: T21, MRCKB (Homo sapiens, UniProt Q9Y5S2)
T21 construct: purchased Ambit (DiscoverX) KINOMEscan; Cerep
Summary of the method: as §1

[22] = target: T22, MYLK2 (Homo sapiens, UniProt Q9H1R3)
T22 construct: purchased Ambit (DiscoverX) KINOMEscan; Cerep
Summary of the method: as §1

[23] = target: T23, NDR2 (Homo sapiens, UniProt Q9Y2H1)
T23 construct: purchased Ambit (DiscoverX) KINOMEscan; Cerep
Summary of the method: as §1

[24] = target: T24, NEK1 (Homo sapiens, UniProt Q96PY6)
T24 construct: purchased Ambit (DiscoverX) KINOMEscan; Cerep
Summary of the method: as §1

[25] = target: T25, PFTK1 (Homo sapiens, UniProt O94921)
T25 construct: purchased Ambit (DiscoverX) KINOMEscan; Cerep
Summary of the method: as §1

[26] = target: T26, PRKD2 (Homo sapiens, UniProt Q9BZL6)
T26 construct: purchased Ambit (DiscoverX) KINOMEscan; Cerep
T26 sequence (Q9BZL6 whole entry): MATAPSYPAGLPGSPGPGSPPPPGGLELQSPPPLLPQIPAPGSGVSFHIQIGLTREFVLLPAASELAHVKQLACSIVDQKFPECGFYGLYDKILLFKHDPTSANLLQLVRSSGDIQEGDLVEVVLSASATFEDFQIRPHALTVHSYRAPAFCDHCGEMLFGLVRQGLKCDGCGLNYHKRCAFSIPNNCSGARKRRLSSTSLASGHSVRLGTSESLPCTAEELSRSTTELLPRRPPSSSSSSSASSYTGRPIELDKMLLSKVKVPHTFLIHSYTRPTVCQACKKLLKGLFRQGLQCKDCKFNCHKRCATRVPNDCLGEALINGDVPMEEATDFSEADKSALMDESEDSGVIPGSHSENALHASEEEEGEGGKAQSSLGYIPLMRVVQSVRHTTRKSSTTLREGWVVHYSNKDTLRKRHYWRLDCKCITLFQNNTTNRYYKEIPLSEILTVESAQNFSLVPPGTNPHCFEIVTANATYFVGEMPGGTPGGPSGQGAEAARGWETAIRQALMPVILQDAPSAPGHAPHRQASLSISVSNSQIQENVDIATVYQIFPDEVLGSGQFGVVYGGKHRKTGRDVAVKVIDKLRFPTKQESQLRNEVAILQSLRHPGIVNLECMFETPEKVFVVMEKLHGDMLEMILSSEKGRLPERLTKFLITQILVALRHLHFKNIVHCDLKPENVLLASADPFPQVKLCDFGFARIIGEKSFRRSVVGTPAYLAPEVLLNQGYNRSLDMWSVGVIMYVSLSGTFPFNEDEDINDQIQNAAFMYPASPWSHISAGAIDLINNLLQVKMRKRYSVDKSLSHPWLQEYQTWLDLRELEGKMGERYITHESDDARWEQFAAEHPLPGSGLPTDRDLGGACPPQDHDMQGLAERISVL
Summary of the method: as §1

[27] = target: T27, PRKG1 (Homo sapiens, UniProt Q13976)
T27 construct: purchased Ambit (DiscoverX) KINOMEscan; Cerep
Summary of the method: as §1

[28] = target: T28, QSK (Homo sapiens, UniProt Q9Y2K2)
T28 construct: purchased Ambit (DiscoverX) KINOMEscan; Cerep
Summary of the method: as §1

[29] = target: T29, SRC (Homo sapiens, UniProt P12931)
T29 construct: purchased Ambit (DiscoverX) KINOMEscan; Cerep
Summary of the method: as §1

[30] = target: T30, SRPK1 (Homo sapiens, UniProt Q96SB4)
T30 construct: purchased Ambit (DiscoverX) KINOMEscan; Cerep
Summary of the method: as §1

[31] = target: T31, TNNI3K (Homo sapiens, UniProt Q59H18)
T31 construct: purchased Ambit (DiscoverX) KINOMEscan; Cerep
T31 sequence (Q59H18 whole entry): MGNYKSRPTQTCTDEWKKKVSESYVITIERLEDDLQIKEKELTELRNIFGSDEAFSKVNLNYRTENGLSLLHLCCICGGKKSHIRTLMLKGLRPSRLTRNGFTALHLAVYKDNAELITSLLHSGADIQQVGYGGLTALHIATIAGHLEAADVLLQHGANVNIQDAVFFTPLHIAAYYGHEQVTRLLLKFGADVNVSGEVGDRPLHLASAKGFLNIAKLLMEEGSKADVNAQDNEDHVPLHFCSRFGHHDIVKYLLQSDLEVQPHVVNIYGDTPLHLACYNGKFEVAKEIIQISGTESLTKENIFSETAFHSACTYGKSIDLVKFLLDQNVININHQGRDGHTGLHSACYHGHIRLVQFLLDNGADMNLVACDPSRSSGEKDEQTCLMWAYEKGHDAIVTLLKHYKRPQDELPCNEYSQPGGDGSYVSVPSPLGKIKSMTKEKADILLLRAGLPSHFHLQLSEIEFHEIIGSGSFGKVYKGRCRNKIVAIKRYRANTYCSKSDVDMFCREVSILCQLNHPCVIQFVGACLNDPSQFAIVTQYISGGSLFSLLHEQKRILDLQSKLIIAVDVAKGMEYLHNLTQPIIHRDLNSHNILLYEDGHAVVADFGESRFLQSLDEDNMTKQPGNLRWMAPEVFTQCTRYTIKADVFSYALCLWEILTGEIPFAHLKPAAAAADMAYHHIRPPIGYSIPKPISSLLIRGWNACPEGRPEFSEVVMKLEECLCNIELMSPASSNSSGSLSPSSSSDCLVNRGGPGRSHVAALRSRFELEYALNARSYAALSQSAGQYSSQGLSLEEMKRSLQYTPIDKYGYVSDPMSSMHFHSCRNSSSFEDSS
Summary of the method: as §1

[32] = target: T32, YANK2 (Homo sapiens, UniProt Q9NY57)
T32 construct: purchased Ambit (DiscoverX) KINOMEscan; Cerep
Summary of the method: as §1

[33] = target: T33, YANK3 (Homo sapiens, UniProt Q86UX6)
T33 construct: purchased Ambit (DiscoverX) KINOMEscan; Cerep
Summary of the method: as §1

[34] = target: T34, YES (Homo sapiens, UniProt P07947)
T34 construct: purchased Ambit (DiscoverX) KINOMEscan; Cerep
Summary of the method: as §1

Measured: remaining binding at 10 µM

CCCCN1CCN(C(=N)c2cccc(NC(=O)Nc3ccc(S(=O)(=O)NCc4ccc(S(N)(=O)=O)cc4)cc3)c2)CC1 [SC81458, 4-(3-(3-((4-butylpiperazin-1-yl)(imino)methyl)phenyl)ureido)-N-(4-sulfamoylbenzyl) benzenesulfonamide]
81%: [29]
77%: [16]
92%: [8] | [10]
83%: [24]
91%: [9]
97%: [26] | [33] | [34]
99%: [21] | [32]
78%: [20]
86%: [27]
93%: [2]
100%: all other assays above
